For this assay, the system named is typical microorganisms encountered in personal care compositions. From the text: The cleansing compositions, e.g. any of Composition 1 or 1.1 to 1.27, include as preservatives, phenoxyethanol, sodium salicylate and a chelating agent (e.g., a salt of ethylenediaminetetraacetic acid). […] It is well known that preservative agents have established minimum inhibitory concentrations, and below such concentrations preservative agents are not effective in preventing microbial growth.

We go through 1 compound from patent US20190282476A1, “Cleansing Composition” (Colgate-Palmolive Company, priority 2015, published 2019).

Turning to `O=C([O-])c1ccccc1O.[Na+]` [sodium salicylate], the MIC result was “about 0.019 % by weight”.
